The source of these data is patent USRE37839E1, “O-benzyloxime ethers and crop protection agents containing these compounds” (BASF Aktiengesellschaft, priority 1990, dated 2002).

Each structure is given as a SMILES string.

In data set [1] the test system is brown rust (Puccinia recondita). Put plainly: Action on wheat brown rust. As to conditions: 0.025 wt % spray liquors; sprayed 24 h after infection; assessed after 8 days. The format is in vivo, Puccinia recondita on wheat seedlings ("Kanzler"). As for the experimental part:
Leaves of pot-grown wheat seedlings of the “Kanzler” variety were dusted with spores of brown rust (Puccinia recondita). The pots were then placed for 24 hours at 20° to 22° C. in a high-humidity (90-95%) chamber. During this period the spores germinated and the germ tubes penetrated the leaf tissue. […] After the sprayed-on layer had dried, the plants were set up in the greenhouse at 20° to 22° C. and a relative humidity of 65 to 70%. The extent of rust fungus spread on the leaves was assessed after 8 days.

A further data set concerns Plasmopara viticola. Put plainly: Action on Peronospora in grapes. The settings on record: 0.025 wt % spray liquors; leaves infected 8 days after spraying.
For another data set, the system named is Pyricularia oryzae. It is filed as in vivo, Pyricularia oryzae on rice seedlings ("Bahia"). The settings on record: 0.05 wt % spray liquors; protective, inoculated 24 hours after spraying; assessed after 6 days.
The test system of data set [2] is Musca domestica (housefly). Put plainly: Musca domestica (housefly); continuous contact action. It is filed as in vivo. As to conditions: continuous contact in Petri dish, counted after 24 hours. As for the experimental part:
Both the tops and bottoms of Petri dishes 10 cm in diameter were lined with a total of 1 ml of acetonic solutions of the active ingredients. After the solvent had evaporated (about 30 mins.), 10 files and absorbent cotton steeped in water were introduced into each dish and the dishes closed. The flies in supine position were counted after 24 hours.
If a kill rate of 80 to 100% occurs at a concentration of 0.01 mg/dish, the test is continued with falling concentrations.

For data set [3], the system named is Plutella maculipennis (diamondback moth). Put plainly: Plutella maculipennis (diamondback moth); ingestion-inhibiting action. It is filed as in vivo. The settings on record: Plutella maculipennis 4th-stage caterpillars on dipped kohlrabi leaves, after 48 hours. As for the experimental part:
Young kohlrabi leaves are dipped for 3 seconds into aqueous solutions of the candidate compounds, and then placed on a round filter paper 9 cm in diameter which has been moistened with 0.5 ml of water. The filter paper is then placed in a Petri dish 10 cm in diameter. 10 caterpillars in the 4th larval stage are then placed on each leaf and the Petri dish is closed. Ingestion inhibition is determined in % after 48 hours.

Experimental for Plasmopara viticola: Leaves of potted vines of the “Müller Thurgau” variety were sprayed with aqueous liquors containing (dry basis) 80% of active ingredient and 20% of emulsifier. To assess the duration of action of the active ingredients, the plants were, after the sprayed-on layer had dried, set up in the greenhouse for 8 days. Only then were the leaves infected with a zoospore suspension of Plasmopara viticola. The vines were then placed for 48 hours in a water-vapor-saturated chamber at 24° C. and then for 5 days in a greenhouse at from 20° to 30° C. To accelerate the sporangiophore discharge, the plants were then again set up in the moist chamber for 16 hours. The extent to which the leaves had been attacked was then assessed.

Take `COC=C(C(=O)OC)c1ccccc1CON=C(c1ccc(OC)cc1)C1CC1` [17 (Table I)]: the fungicidal action (in data set [1]; with Plasmopara viticola) was 95% throughout. Consider `CON=C(C(=O)OC)c1ccccc1CON=C(C)c1ccc(Oc2ccccc2)cc1` [Compound no. 769 (Table II)], for which the fungicidal action in the data set on Pyricularia oryzae was 100%.

As to `COC=C(C(=O)OC)c1ccccc1CON=C(C)c1cc(Cl)cc(Cl)c1` [compound 582], the values for the Mortality in % in data set [2] (application rate 0.1 ppm) and in data set [3] (application rate 400 ppm) were 80% and 100%, respectively. In the data set with Plasmopara viticola, `CON=C(C(=O)OC)c1ccccc1CON=C(C#N)C(C)C` [Compound no. 49 (Table II)] returned a fungicidal action of 95%. On to `COC=C(C(=O)OC)c1ccccc1CON=C(C)c1cccc(Br)c1` [Compound no. 592 (Table I)], for which the fungicidal action is on record as 95% in data set [1], 95% with Plasmopara viticola and 100% with Pyricularia oryzae.

Regarding `COC=C(C(=O)OC)c1ccccc1CON=C(C)c1cccc(C)c1` [616 (Table I)], the fungicidal action in data set [1] is 95%; in the data set with Plasmopara viticola, 95%; with Pyricularia oryzae it was 100%. With `CON=C(C(=O)OC)c1ccccc1CON=C(C)c1ccc(F)cc1` [Compound no. 571 (Table II)], in the data set with Pyricularia oryzae, the fungicidal action came out at 100%. As to `COC=C(C(=O)OC)c1ccccc1CON=C(c1ccc(Cl)cc1)C1CC1` [16 (Table I)], the fungicidal action (in data set [1]; in the data set with Plasmopara viticola) was 95% in each case.

For `COC=C(C(=O)OC)c1ccccc1CON=C(C#N)C(C)C` [49 (Table I)], the fungicidal action (in data set [1]; in the data set on Plasmopara viticola) was 95% in each case. Take `COC=C(C(=O)OC)c1ccccc1CON=C(C#N)OC1CCCCO1` (stereo not drawn) [429 (Table I)]: the results for the fungicidal action (in data set [1]; in the data set on Plasmopara viticola; in the data set with Pyricularia oryzae) were 95%, 95% and 100%, respectively. Take `CON=C(C(=O)OC)c1ccccc1COc1ccccc1` [A, 2-(phenoxymethyl)-phenylglyoxylic acid-methyl ester-O-methyloxime, reference compound]: the fungicidal action (in data set [1]; with Plasmopara viticola) was 50% throughout. As for `COC=C(C(=O)OC)c1ccccc1CON=C(C)c1ccc(C(F)(F)F)cc1` [Compound no. 706 (Table I)], the fungicidal action is 95% with Plasmopara viticola and 100% with Pyricularia oryzae. As for `COC=C(C(=O)OC)c1ccccc1CON=C(C#N)C(C)C` [compound 49], the Mortality in % in data set [2] (application rate 0.1 ppm) and in data set [3] (application rate 200 ppm) was 80% each time.

`COC=C(C(=O)OC)c1ccccc1CON=C(c1ccc(F)cc1)C1CC1` [Compound no. 15 (Table I)]: the fungicidal action (in data set [1]; with Plasmopara viticola) was 95% in each case. Compound `CON=C(C(=O)OC)c1ccccc1CON=C(C#N)C1CC1` [Compound no. 56 (Table II)] displayed a fungicidal action in the data set on Plasmopara viticola of 95%.

As for `COC=C(C(=O)OC)c1ccccc1CON=C(C)c1ccccc1Cl` [Compound no. 573 (Table I)], the fungicidal action (in data set [1]; with Plasmopara viticola) was 95% each time. For `COC=C(C(=O)OC)c1ccccc1CON=C(C)c1ccc(Cl)c(Cl)c1Cl` [Compound no. 583 (Table I)], the fungicidal action is listed as 95% in the data set with Plasmopara viticola and 100% in the data set on Pyricularia oryzae.

In the case of `COC=C(C(=O)OC)c1ccccc1CON=C(C)c1ccc(Br)cc1` [Compound no. 593 (Table I), Methyl 3-methoxy-2-[2′-(1″-(4′″-bromophenyl)-1″-methyl)-iminooxymethyl]-phenylacrylate], the values for the fungicidal action in the data set on Plasmopara viticola and in the data set with Pyricularia oryzae were 95% and 100%, respectively. Turning to `CON=C(C(=O)OC)c1ccccc1CON=C(C)c1ccc(C2CCCCC2)cc1` [Compound no. 782 (Table II)], in the data set on Pyricularia oryzae, the fungicidal action came out at 100%. Turning to `CON=C(C(=O)OC)c1ccccc1CON=C(C)c1cc(Cl)cc(Cl)c1` [Compound no. 582 (Table II), Methyl 2-methoximino-2-[2′-(1″-(3′″,5′″-dichlorophenyl)-1″-methyl)-iminooxymethyl]-phenylacetate], the fungicidal action was determined as 95% in the data set on Plasmopara viticola and 100% in the data set with Pyricularia oryzae. With `COC=C(C(=O)OC)c1ccccc1CON=C(C#N)C(C)(C)OC` [compound 36], the Mortality in % in data set [2] (application rate 1.0 ppm) and in data set [3] (application rate 200 ppm) was 80% each time.

As to `CON=C(C(=O)OC)c1ccccc1CON=C(c1ccc(F)cc1)C1CC1` [Compound no. 15 (Table II)], the fungicidal action in the data set on Plasmopara viticola is listed as 95%; in the data set on Pyricularia oryzae, 100%.

`CON=C(C(=O)OC)c1ccccc1CON=C(C#N)OC1CCCCO1` (stereo not drawn) [Compound no. 429 (Table II)] came in with a fungicidal action in the data set on Plasmopara viticola of 95%. Take `COC=C(C(=O)OC)c1ccccc1CON=C(C)c1ccc(C(F)(F)F)cc1` [compound 706]: the Mortality in % amounted to 100% in data set [2] (application rate 0.1 ppm) and 80% in data set [3] (application rate 400 ppm). Turning to `CON=C(C(=O)OC)c1ccccc1CON=C(c1ccc(Cl)cc1)C1CC1` [Compound no. 16 (Table II)], the values for the fungicidal action in the data set with Plasmopara viticola and in the data set with Pyricularia oryzae were 95% and 100%, respectively. In the case of `CON=C(C(=O)OC)c1ccccc1CON=C(C)c1ccc(C(C)(C)C)cc1` [Compound no. 644 (Table II)], the fungicidal action in data set [1] is 95%; with Plasmopara viticola, 95%; in the data set on Pyricularia oryzae, 100%. `CON=C(C(=O)OC)c1ccccc1CON=C(C)c1cccc(Br)c1` [Compound no. 592 (Table II)] came in with a fungicidal action with Pyricularia oryzae of 100%. In turn, `COC=C(C(=O)OC)c1ccccc1CON=C(C#N)OC1CCCCO1` (stereo not drawn) [compound 429] displayed a Mortality in % in data set [3] (application rate 1000 ppm) of 80%.

`CON=C(C(=O)OC)c1ccccc1CON=C(C#N)c1ccccc1` [Compound no. 117 (Table II)]: the fungicidal action in the data set on Plasmopara viticola was determined as 95%. `COC=C(C(=O)OC)c1ccccc1CON=C(c1ccc(Cl)cc1)C1CC1` [compound 16] showed a Mortality in % in data set [3] (application rate 400 ppm) of 80%. Consider `CON=C(C(=O)OC)c1ccccc1CON=C(c1ccc(OC)cc1)C1CC1` [17 (Table II)], for which the values for the fungicidal action (in data set [1]; with Plasmopara viticola; in the data set on Pyricularia oryzae) were 95%, 95% and 100%, respectively.

In turn, `COC=C(C(=O)OC)c1ccccc1CON=C(C)c1cccc(Br)c1` [compound 592] registered a Mortality in % in data set [3] (application rate 400 ppm) of 80%. In turn, `CON=C(C(=O)OC)c1ccccc1CON=C(C#N)C(C)(C)SC` [Compound no. 43 (Table II)] yielded a fungicidal action with Plasmopara viticola of 95%. Compound `CON=C(C(=O)OC)c1ccccc1CON=C(C)c1ccc(Cl)c(Cl)c1Cl` [Compound no. 583 (Table II)] came in with a fungicidal action in the data set on Pyricularia oryzae of 100%. In the data set with Plasmopara viticola, `CON=C(C(=O)OC)c1ccccc1CON=C(C#N)C(C)(C)OC` [Compound no. 36 (Table II)] came in with a fungicidal action of 95%. For `COC=C(C(=O)OC)c1ccccc1CON=C(c1ccccc1)C1CC1` [14 (Table I)], the fungicidal action (in data set [1]; with Plasmopara viticola) was 95% throughout. As to `COC=C(C(=O)OC)c1ccccc1CON=C(C)c1ccccc1C(F)(F)F` [Compound no. 704 (Table I)], the fungicidal action (in data set [1]; in the data set with Plasmopara viticola) was 95% in each case.

Regarding `CCOC(C)(C)C(C#N)=NOCc1ccccc1C(=COC)C(=O)OC` [compound 37], in data set [2] (application rate 0.1 ppm), the Mortality in % is reported as 100%.

In turn, `CON=C(C(=O)OC)c1ccccc1CON=C(C)c1ccc([N+](=O)[O-])cc1` [Compound no. 614 (Table II), Methyl 2-methoximino-2-[2′-(1″-(4′″-nitrophenyl)-1″-methyl)-iminooxymethyl]-phenylacetate] displayed a fungicidal action in the data set on Plasmopara viticola of 95%.

Turning to `COC=C(C(=O)OC)c1ccccc1CON=C(C)c1ccc(Cl)cc1Cl` [Compound no. 578 (Table I)], the fungicidal action (in data set [1]; in the data set on Plasmopara viticola) was 95% throughout. On to `COC=C(C(=O)OC)c1ccccc1CON=C(C)c1cc(Cl)ccc1Cl` [Compound no. 579 (Table I)], for which the fungicidal action in the data set on Plasmopara viticola is listed as 95%. On to `COC=C(C(=O)OC)c1ccccc1CON=C(C)c1cccc(C(F)(F)F)c1` [Compound no. 705 (Table I)], for which the fungicidal action (in data set [1]; in the data set with Plasmopara viticola) was 95% in each case.

With `COC=C(C(=O)OC)c1ccccc1CON=C(C)c1cc(Cl)cc(Cl)c1` [Compound no. 582 (Table I), Methyl 3-methoxy-2-[2′-[1″-(3′″,5′″-dichlorophenyl)-1″-methyl]-iminooxymethyl]-phenylacrylate], the fungicidal action (in data set [1]; with Plasmopara viticola) was 95% each time.

For `COC=C(C(=O)OC)c1ccccc1CON=C(C#N)c1ccc(F)c(Cl)c1` [Compound no. 156 (Table I)], the fungicidal action in the data set with Plasmopara viticola was 95%.
